Data taken from patent publication US20120239140A1, “MEDICAL PRODUCT COMPRISING AN ACTIVE COATING” (priority 2011, published 2012).
“Also recorded” adds a separate entry of the source.

How the values were obtained:
[1] = tested on: pathologically altered human aortas; test: Ex vivo test on the aorta model (stent implanted in the explant, 2 weeks culture, PCR); type: cell-based
From the text: The ex vivo test on pathologically altered human arteries and, in particular, on human aortas is a novel test model that makes it possible to better predict the clinical efficacy of biologically active coatings of medical implants such as stents or balloon catheters. Until now, it was not possible to perform this prediction in a reliable manner. […] These failures have engendered doubt in the benefit of the standard animal models, since, despite additional serial examinations and comprehensive screenings, the clinical efficacy of a new substance is uncertain even though preclinical results were positive. Until now there was no test model available that investigated the antiproliferative effect of new drugs in the complex biological environment of an arteriosclerotic vessel. On the basis of this novel test model, it is now possible to obtain mechanistic insights into the origin of a restenosis after stent implantation and to develop a therapy specific for the cause thereof
The special test procedure is based on the use of human pathological vascular tissue obtained directly within one hour after operation (vasectomy). Immediately after removal, the vascular preparations are placed in a sterile phosphate buffer (PBS) at room temperature, and are transported. […]

[2] = cited from earlier work
[3] = cited from earlier work; remark: listed apart in the source

Compound	proliferation of smooth muscle cells (proliferation markers KI-67 and PCNA) ([1]; Pyr3 eluted from polymeric stent coating (embodiment 1) compared with uncoated 316L stent, after stent implantation with overexpansion, FIGS. 2 and 3)	total number of smooth muscle cells (expression of hSMTN and hAlpha-actin) ([1]; stent with Pyr3 (embodiment 1) compared with uncoated 316L stent, after stent implantation, FIG. 2)	antirestenotic effect / reduction of restenosis in clinical practice [2]	efficacy in the experimental animal model [3]
CCOC(=O)c1cnn(-c2ccc(NC(=O)C(Cl)=C(Cl)Cl)cc2)c1C(F)(F)F [Pyr3, ethyl-1-(4-(2,3,3-trichloroacrylamide)phenyl)-5-(trifluoromethyl)-1H-pyrazole-4-carboxylate]	can be inhibited; also recorded: lower overall proliferation	does not lead to the otherwise common drop in total number of smooth muscle cells	–	–
CC(=O)Oc1ccccc1C(=O)O [aspirin]	–	–	did not reduce restenosis	good efficacy
CC[C@@H]1/C=C(\C)C[C@H](C)C[C@H](OC)[C@H]2O[C@@](O)(C(=O)C(=O)N3CCCC[C@H]3C(=O)O[C@H](/C(C)=C/[C@@H]3CC[C@H](Cl)[C@H](OC)C3)[C@H](C)[C@@H](O)CC1=O)[C@H](C)C[C@@H]2OC [pimecrolimus]	–	–	did not reduce restenosis	good efficacy
heparin	–	–	did not reduce restenosis	good efficacy
